Data published in patent US20200206198A1, “CFTR CHANNEL ACTIVATOR FOR USE IN THE TREATMENT AND/OR PREVENTION OF GLUTEN SENSITIVITY CONDITIONS” (priority 2017, published 2020).

Assays:
[1] = system: gliadin-sensitive BALB/c mice; assay: Gliadin-sensitive BALB/c mice, 4-week oral gliadin challenge; format: in vivo, mouse
Protocol: In the first model, BALB/c mice are fed for at least three generations with a gluten-free diet, followed by a 4-week gliadin challenge, as described (Papista, C., et al. 2012). Ten week-old BALB/c mice were orally challenged for 4 weeks with gliadin or vehicle in the presence or absence of 2 mM VX-770 administered intraperitoneally 15 min prior to gliadin challenge (n=10 per treatment group). […] Moreover, VX-770 opposed the ability of gliadin to increase TG2 protein levels (FIG. 9c) and ERK 1/2 phosphorylation (FIG. 9d).
BALB/c mice (background BALB/cAnNCrl) were purchased from Charles River (Varese, Italy). Three generation gluten-free diet (Mucedola srl, Milan), male and female, were challenged with gliadin for 4 weeks. To assess the effects of VX-770 into a controlled environment, mice were challenged via gavage for 4 weeks with i) vehicle alone or ii) gliadin (SigmaAldich, G3375) (5 mg/daily for one week and then 5 mg/daily thrice a week for 3 weeks)(Moon, S. H., et al. 2016) in the presence or absence of intraperitoneal VX770 (0.075 mg/mice in 100 μl DMSO, 2 mM, SelleckchemS1144) or genistein (25 mg\kg in 100μ1 DMSO, SigmaAldrich), administered 15 minutes prior gliadin challenge (n=10 mice per group of treatment).
At the end of the last daily treatment, mice were anesthetized with Avertine (tribromoethanol, 250 mg/kg, Sigma Aldrich, T48402) and then killed; the intestines were collected for CFTR function analysis or stored for all described techniques.
Chambers for mounting either transwell cell cultures or mouse tissue biopsies were obtained from Physiologic Instruments (model P2300, San Diego, Calif., USA). Chamber solution was buffered by bubbling with identical Ringer solution on both sides and were maintained at 37° C., vigorously stirred, and gassed with 95% O2/[…]. Cells or tissues were short circuited using Ag/AgCl agar electrodes. A basolateral-to-apical chloride gradient was established by replacing NaCl with Na-gluconate in the apical (luminal) compartment to create a driving force for CFTR-dependent Cl secretion. To measure stimulated Isc, the changed sodium gluconate solution was supplied with 100 μM amiloride. Agonists (forskolin) were added to the bathing solutions as indicated (for a minimum 5 min of observation under each condition) to activate CFTR channels present at the apical surface of the epithelium (either cell surface or lumen side of the tissue) and CFTRInh-172 (10 μM) was added to the mucosal bathing solution to block CFTR-dependent Isc. Shortcircuit current (expressed as Isc (μA/cm2)) and resistance were acquired or calculated using the VCC600 transepithelial clamp from Physiologic Instruments and the Acquire & Analyze 2.3 software for data acquisition (Physiologic Instruments), as previously described Tosco A, et al. 2016; Romani, L. et al. 2017).
The whole lysate or membrane fraction proteins of cell lines and mice intestine homogenates were obtained from treated and untreated cells or mice as described. The equal amount of protein were resolved by SDS-PAGE gel and blotted with antibodies against: SQSTM1, (Sigma Aldrich, 108k4767) 1:1000, PPARγ (Santa Cruz Biotechnology, sc7273) 1:500, BECN1 (Abcam, ab58878) 1:1000, CFTR clone M3A7 (Abcam, ab4067) 1:500, phospho-ERK1/2 (php42/44, Cell Signaling Technology, #91101) 1:1000, UVRAG (Santa Cruz Biotechnology sc8215) 1:1000, NHERF-1 (BD, 611161) 1:1000, EZRIN (BD, 610603) 1:1000, hVps34 (SigmaV9764) 1:300, biotin (Abcam, ab1227) 1:2000, PKAr2a (BD, 610625) 1:500, Ubiquitin (Cell Signaling clone P4D1, #3936) 1:1000, CHIP (Calbiochem PC711) 1:500, Caspase-1 p10 (M-20) (Santa Cruz Biotechnology, sc-514) 1:200, NLRP3 (Abcam, ab4207), 1:500, IDO1 (monoclonal; cv152) 1:1000^[80], used as primary antibodies. Normalization was performed by probing the membrane with anti-β-actin (Cell Signaling, #4970) 1:1000, anti-Gapdh (Sigma-Aldrich, G8795) 1:1000 and anti-flottilin (Abcam ab15148) 1:1000 antibodies. […]

[2] = system: recombinant human NBD1 (rhNBD1); assay: Surface plasmon resonance peptide-protein interaction; format: binding
Protocol: Peptide-protein interactions were studied using a Biacore™ T100 (GE Healthcare) instrument. hrNBD1 domain or the indicated biotinylated peptides were immobilized by thiol coupling on a CMS (series S) sensor chip to a final density of 2000 resonance units (RU) or by biotin-streptavidin capture on a SA (series S) sensor chip to a final density of 250 RU, respectively. A flow cell with no immobilized protein or peptide was used as control. Binding analysis was carried out at 20° C. in a running buffer consisting of 10 mM HEPES, pH 7.4, 150 mM NaCl, 0.05% (v/v) Tween-20, 2 mM ATP, 5 mM MgCl2, 1 mM DTT applying a flow rate of 20 μl/min. For each experiment a Biacore™ method program was used. It included a series of three start up injections (running buffer), zero control (running buffer) and different concentrations of ligand. […] Each sensorgram (time-course of the surface plasmon resonance signal) was corrected for the response obtained in the control flow cell and normalized to baseline. Data were analysed using the 2.0.3 BIAevaluation software (GE Healthcare). At least three independent experiments for each analysis were performed.
FIG. 2: a, Protein-Protein docking and Molecular Dynamics of P31-43 (violet) bound to NBD1 (orange). Left side: general view of P31-43 and NBD1 interaction. Upper right: detailed interaction pattern, highlighting the most important amino acids. Lower right: in silico NBD1/P31-43 complex compared to the original crystallographic positions of Tip 401 and ATP. b, Graphical view of the in silico sampling percentage of P31-43 against NBD1/NBD2 (left 10 panel), and of P31-43/4QA (4QA) against NBD1 (right panel). c-d, Surface plasmon resonance (SPR) analysis of rhNBD1 binding to P31-43 and P57-68 biotinylated peptides immobilized on SA sensor chip (c) and of increasing concentrations of P31-43 and P57-68 peptides 15 on rhNBD1 covalently bound to the CMS sensor chip (d).

[3] = BALB/c mice small intestine homogenates

Compound | effect on gliadin induced expression of IL-21 ([1]; BALB/c mice) | effect on gliadin-induced NLRP3 expression ([1]; BALB/c mice small intestine) | effect on gliadin-induced caspase 1 cleavage ([1]; BALB/c mice small intestine) | effect on increased NKG2D expression by intraepithelial lymphocytes ([1]; BALB/c mice small intestine) | Th1 transcription factor Tbet transcript [1, 3] | Th17 transcription factor Rorc transcript [1, 3] | effect on gliadin-induced decrease of CFTR function in small intestines ([1]; BALB/c mice, 2 mM VX-770 i.p. 15 min prior to gliadin) | effect on gliadin-induced ERK 1/2 phosphorylation ([1]; BALB/c mice, VX-770 i.p.) | effect on gliadin-induced increase of TG2 protein levels ([1]; BALB/c mice, VX-770 i.p.) | effect on gliadin-induced increase of IFN-γ mRNA and protein ([1]; BALB/c mice, p<0.001) | effect on gliadin-induced increase of IL-15 mRNA and protein ([1]; BALB/c mice, p<0.001) | effect on gliadin-induced increase of IL-17A mRNA and protein ([1]; BALB/c mice, p<0.001) | IL-10 production ([1]; gliadin-sensitive mice, ELISA) | TGF-β production ([1]; gliadin-sensitive mice, ELISA) | interaction with rhNBD1 in the flow phase ([2]; SPR, peptide immobilized on sensor chip) | SPR signal on immobilized rhNBD1 ([2]; rhNBD1 immobilized on chip, different peptide concentrations)
CC(C)(C)c1cc(C(C)(C)C)c(NC(=O)c2c[nH]c3ccccc3c2=O)cc1O [VX-770, N-(2,4-di-tert-butyl-5-hydroxyphenyl)-4-oxo-1,4-dihydroquinoline-3-carboxamide] | inhibited | counteracted | counteracted | counteracted | downregulated | downregulated | inhibitable | opposed | opposed | prevented | prevented | prevented | restored | restored | – | –
α-gliadin peptide LGQQQPFPPQQPY (SEQ ID 1), induces an enterocyte stress response (P31-43 sequence of alpha-gliadin) | – | – | – | – | – | – | – | – | – | – | – | – | – | – | confirmed the predicted interaction | yielded a dose-dependent signal
